Results on 21 compounds are retold here after patent US9932331B2, “Phenyl tetrahydroisoquinoline compound substituted with heteroaryl” (TAISHO PHARMACEUTICAL CO., LTD, priority 2014, dated 2018).

Counter-ions that a name gives are not always drawn.

For the assay, the target named is T1, human NHE3 (Homo sapiens, UniProt P48764).
T1 sequence (P48764 26-834): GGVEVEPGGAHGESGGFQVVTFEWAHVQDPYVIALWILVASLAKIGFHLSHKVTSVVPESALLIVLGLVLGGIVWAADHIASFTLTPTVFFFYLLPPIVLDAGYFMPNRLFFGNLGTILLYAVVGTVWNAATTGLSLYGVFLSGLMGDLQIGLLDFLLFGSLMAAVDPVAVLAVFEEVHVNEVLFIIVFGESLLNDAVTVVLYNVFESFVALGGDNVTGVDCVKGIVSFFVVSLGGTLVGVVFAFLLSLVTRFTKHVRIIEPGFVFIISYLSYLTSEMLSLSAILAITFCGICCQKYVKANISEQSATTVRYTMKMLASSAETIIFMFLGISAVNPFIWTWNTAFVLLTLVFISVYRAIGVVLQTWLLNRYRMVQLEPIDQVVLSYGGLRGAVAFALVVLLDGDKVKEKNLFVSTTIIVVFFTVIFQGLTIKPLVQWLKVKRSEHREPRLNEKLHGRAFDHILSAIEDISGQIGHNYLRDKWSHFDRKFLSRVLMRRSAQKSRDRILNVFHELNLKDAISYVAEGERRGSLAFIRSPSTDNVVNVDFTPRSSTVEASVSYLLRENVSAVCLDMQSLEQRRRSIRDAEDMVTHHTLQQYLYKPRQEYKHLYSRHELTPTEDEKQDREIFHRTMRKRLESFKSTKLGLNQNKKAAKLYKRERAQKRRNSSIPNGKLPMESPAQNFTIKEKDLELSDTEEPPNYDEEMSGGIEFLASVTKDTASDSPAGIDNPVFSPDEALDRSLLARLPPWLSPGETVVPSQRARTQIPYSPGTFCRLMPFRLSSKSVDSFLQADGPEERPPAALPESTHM
Description: NHE3 inhibition test (recovery of intracellular pH in cell line stably expressing human NHE3). It counts as cell-based. As to conditions: OK cells deficient in endogenous NHE stably expressing human NHE3; BCECF fluorescence, initial rate of pH recovery; read-out: human NHE3 inhibitory activity IC50. In outline:
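IC50 is the concentration halving the initial rate of Na-triggered intracellular pH recovery, tracked by BCECF fluorescence, in NH4Cl-acidified cells. Cells: NHE-deficient OK line stably transfected with human NHE3; compound added in Na-free pH 7.4 buffer.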

The IC50 is the concentration that gives 50% inhibition.

For `CN1Cc2c(Cl)cc(Cl)cc2[C@H](c2cccc(-c3ccc(NCCOCCOCCNC(=O)CCC(=O)NCCOCCOCCNc4ccc(-c5cccc([C@@H]6CN(C)Cc7c(Cl)cc(Cl)cc76)c5)cn4)nc3)c2)C1` [Example 8-1, N,N′-Bis[2-(2-{2-[(5-{3-[(4S)-6,8-dichloro-2-methyl-1,2,3,4-tetrahydroisoquinolin-4-yl]phenyl}pyridin-2-yl)amino]ethoxy}ethoxy)ethyl]butanediamide hydrochloride], the IC50 came out at 14.9 nM.
In the case of `CN1Cc2c(Cl)cc(Cl)cc2[C@H](c2cccc(-c3cnc(NCCOCCOCCOCCNC(=O)NCCCCNC(=O)NCCOCCOCCOCCNc4ncc(-c5cccc([C@@H]6CN(C)Cc7c(Cl)cc(Cl)cc76)c5)cn4)nc3)c2)C1` [Example 7-38, 1,1′-Butane-1,4-diylbis(3-{2-[2-(2-{2-[(5-{3-[(4S)-6,8-dichloro-2-methyl-1,2,3,4-tetrahydroisoquinolin-4-yl]phenyl}pyrimidin-2-yl)amino]ethoxy}ethoxy)ethoxy]ethyl}urea) hydrochloride] it was 3.8 nM; in that of `CN1Cc2c(Cl)cc(Cl)cc2[C@H](c2cccc(-c3cnccn3)c2)C1` [Example 1-14, (4S)-6,8-Dichloro-2-methyl-4-[3-(pyrazin-2-yl)phenyl]-1,2,3,4-tetrahydroisoquinoline trifluoroacetate], 173 nM.
Regarding `CN1Cc2c(Cl)cc(Cl)cc2[C@H](c2cccc(-c3ccc(NCCOCCOCCNC(=O)CCCCC(=O)NCCOCCOCCNc4ccc(-c5cccc([C@@H]6CN(C)Cc7c(Cl)cc(Cl)cc76)c5)cn4)nc3)c2)C1` [Example 8-3, N,N′-Bis[2-(2-{2-[(5-{3-[(4S)-6,8-dichloro-2-methyl-1,2,3,4-tetrahydroisoquinolin-4-yl]phenyl}pyridin-2-yl)amino]ethoxy}ethoxy)ethyl]hexanediamide hydrochloride], the IC50 worked out at 13.2 nM.
In the case of `CN1Cc2c(Cl)cc(Cl)cc2[C@H](c2cccc(-c3ccn[nH]3)c2)C1` [Example 1-3, (4S)-6,8-Dichloro-2-methyl-4-[3-(1H-pyrazol-3-yl)phenyl]-1,2,3,4-tetrahydroisoquinoline] it was 392 nM.
In the case of `CN1Cc2c(Cl)cc(Cl)cc2[C@H](c2cccc(-c3nn[nH]n3)c2)C1` [Example 2-1, (4S)-6,8-dichloro-2-methyl-4-[3-(2H-tetrazol-5-yl)phenyl]-1,2,3,4-tetrahydroisoquinoline] it was 89.3 nM; in that of `CN1Cc2c(Cl)cc(Cl)cc2[C@H](c2cccc(-c3cn(CCOCCOCCOCCNC(=O)[C@H](O)[C@@H](O)C(=O)NCCOCCOCCOCCn4cc(-c5cccc([C@@H]6CN(C)Cc7c(Cl)cc(Cl)cc76)c5)nn4)nn3)c2)C1` [Example 8-5, (2R,3R)-N,N′-Bis[2-(2-{2-[2-(4-{3-[(4S)-6,8-dichloro-2-methyl-1,2,3,4-tetrahydroisoquinolin-4-yl]phenyl}-1H-1,2,3-triazol-1-yl)ethoxy]ethoxy}ethoxy)ethyl]-2,3-dihydroxybutanediamide hydrochloride], 2.8 nM; in that of `CN1Cc2c(Cl)cc(Cl)cc2[C@H](c2cccc(-c3cc(OCCOCCOCCNC(=O)NCCCCNC(=O)NCCOCCOCCOc4cc(-c5cccc([C@@H]6CN(C)Cc7c(Cl)cc(Cl)cc76)c5)ncn4)ncn3)c2)C1` [Example 7-12, 1,1′-Butane-1,4-diylbis {3-[2-(2-{2-[(6-{3-[(4S)-6,8-dichloro-2-methyl-1,2,3,4-tetrahydroisoquinolin-4-yl]phenyl}pyrimidin-4-yl)oxy]ethoxy}ethoxy)ethyl]urea} tetrahydrochloride], 7.5 nM.
Then `Cc1nnc(-c2cccc([C@@H]3CN(C)Cc4c(Cl)cc(Cl)cc43)c2)[nH]1` [Example 3-1, (4S)-6,8-Dichloro-2-methyl-4-[3-(3-methyl-1H-1,2,4-triazol-5-yl)phenyl]-1,2,3,4-tetrahydroisoquinoline hydrochloride], with 49.1 nM.
As for `CN1Cc2c(Cl)cc(Cl)cc2[C@H](c2cccc(-c3ccco3)c2)C1` [Example 1-23, (4S)-6,8-Dichloro-4-[3-(furan-2-yl)phenyl]-2-methyl-1,2,3,4-tetrahydroisoquinoline], the IC50 amounted to 3220 nM.
Turning to `CN1Cc2c(Cl)cc(Cl)cc2[C@H](c2cccc(-c3cnnc(NCCOCCOCCNC(=O)NCCCCNC(=O)NCCOCCOCCNc4cc(-c5cccc([C@@H]6CN(C)Cc7c(Cl)cc(Cl)cc76)c5)cnn4)c3)c2)C1` [Example 7-13, 1,1′-Butane-1,4-diylbis {3-[2-(2-(2-{2-[(5-{3-[(4S)-6,8-dichloro-2-methyl-1,2,3,4-tetrahydroisoquinolin-4-yl]phenyl}pyridazin-3-yl)amino]ethoxy}ethoxy)ethyl]urea}tetrahydrochloride], the half-inhibitory concentration (IC50) is 12 nM.
As for `CN1Cc2c(Cl)cc(Cl)cc2[C@H](c2cccc(-c3ccccn3)c2)C1` [Example 1-6, (4S)-6,8-Dichloro-2-methyl-4-[3-(pyridin-2-yl)phenyl]-1,2,3,4-tetrahydroisoquinoline trifluoroacetate], the IC50 was 373 nM.
Then `CN1Cc2c(Cl)cc(Cl)cc2[C@H](c2cccc(-c3cnc(NCCOCCOCCNC(=O)NCCCCNC(=O)NCCOCCOCCNc4ncc(-c5cccc([C@@H]6CN(C)Cc7c(Cl)cc(Cl)cc76)c5)cn4)nc3)c2)C1` [Example 7-3, 1,1′-Butane-1,4-diylbis {3-[2-(2-{2-[(5-{3-[(4S)-6,8-dichloro-2-methyl-1,2,3,4-tetrahydroisoquinolin-4-yl]phenyl}pyrimidin-2-yl)amino]ethoxy}ethoxy)ethyl]urea}hydrochloride], with 11 nM.
Turning to `CN1Cc2c(Cl)cc(Cl)cc2C(c2cccc(-c3cn(C)nn3)c2)C1` (stereo not drawn) [Example 1-8, 6,8-Dichloro-2-methyl-4-[3-(1-methyl-1H-1,2,3-triazol-4-yl)phenyl]-1,2,3,4-tetrahydroisoquinoline], the IC50 was 126 nM.
Then `CN1Cc2c(Cl)cc(Cl)cc2[C@H](c2cccc(-c3ccc[nH]3)c2)C1` [Example 1-21, (4S)-6,8-Dichloro-2-methyl-4-[3-(1H-pyrrol-2-yl)phenyl]-1,2,3,4-tetrahydroisoquinoline], with 1170 nM.
Then `CN1Cc2c(Cl)cc(Cl)cc2[C@H](c2cccc(-c3cn(CCOCCOCCNC(=O)NCCCCNC(=O)NCCOCCOCCn4cc(-c5cccc([C@@H]6CN(C)Cc7c(Cl)cc(Cl)cc76)c5)nn4)nn3)c2)C1` [Example 6-1, 1,1′-Butane-1,4-diylbis[3-(2-{2-[2-(4-{3-[(4S)-6,8-dichloro-2-methyl-1,2,3,4-tetrahydroisoquinolin-4-yl]phenyl}-1H-1,2,3-triazol-1-yl)ethoxy]ethoxy}ethyl)urea]], with 2.4 nM.
With `CN1Cc2c(Cl)cc(Cl)cc2[C@H](c2cccc(-c3cc(OCCOCCOCCOCCNC(=O)CCCCC(=O)NCCOCCOCCOCCOc4cc(-c5cccc([C@@H]6CN(C)Cc7c(Cl)cc(Cl)cc76)c5)ncn4)ncn3)c2)C1` [Example 8-23, N,N′-Bis{2-[2-(2-{2-[(6-{3-[(4S)-6,8-dichloro-2-methyl-1,2,3,4-tetrahydroisoquinolin-4-yl]phenyl}pyrimidin-4-yl)oxy]ethoxy}ethoxy)ethoxy]ethyl}hexanediamide hydrochloride], the IC50 was 4.7 nM.
Then `Cc1nc(-c2cccc([C@@H]3CN(C)Cc4c(Cl)cc(Cl)cc43)c2)no1` [Example 4-1, (4S)-6,8-Dichloro-2-methyl-4-[3-(5-methyl-1,2,4-oxadiazol-3-yl)phenyl]-1,2,3,4-tetrahydroisoquinoline hydrochloride], with 554 nM; and `CN1Cc2c(Cl)cc(Cl)cc2[C@H](c2cccc(-c3cn(CCOCCOCCOCCNC(=O)NCCCCCCNC(=O)NCCOCCOCCOCCn4cc(-c5cccc([C@@H]6CN(C)Cc7c(Cl)cc(Cl)cc76)c5)nn4)nn3)c2)C1` [Example 7-27, 1,1′-Hexane-1,6-diylbis {3-[2-(2-{2-[2-(4-{3-[(4S)-6,8-dichloro-2-methyl-1,2,3,4-tetrahydroisoquinolin-4-yl]phenyl}-1H-1,2,3-triazol-1-yl)ethoxy]ethoxy}ethoxy)ethyl]urea}hydrochloride], with 11.3 nM; and `CNc1cc(-c2cccc([C@@H]3CN(C)Cc4c(Cl)cc(Cl)cc43)c2)ncn1` [Example 1-15, 6-{3-[(4S)-6,8-Dichloro-2-methyl-1,2,3,4-tetrahydroisoquinolin-4-yl]phenyl}-N-methylpyrimidin-4-amine trifluoroacetate], with 117 nM.
On to `Cc1cc(-c2cccc([C@@H]3CN(C)Cc4c(Cl)cc(Cl)cc43)c2)sn1` [Example 1-19, (4S)-6,8-Dichloro-2-methyl-4-[3-(3-methyl-1,2-thiazol-5-yl)phenyl]-1,2,3,4-tetrahydroisoquinoline hydrochloride], for which the IC50 was found to be 856 nM.
